Source: patent publication US8338423B2, “Compositions for the treatment of hyperphenylalaninemia” (Universidad de Zaragoza, priority 2007, dated 2012)
Where a chain is given by its changes, count along the chain named.

Experiments:
R68S-PAH = target: T1, R68S-PAH (Homo sapiens, UniProt P00439, R68S); assay: ANS-monitored thermal unfolding of R68S-PAH; format: binding; details: for ΔT0.5 PAHR68S / T0.5 PAHR68S: 100 μM compound; for ΔT0.5 PAHR68S: vs no ligand; for T0.5 PAHR68S: mean ± SD; for stabilization of R68S-PAH: 100 μM ligand
T1 construct: made in house; host or cells: E. coli
T1 sequence (P00439 1-452 R68S): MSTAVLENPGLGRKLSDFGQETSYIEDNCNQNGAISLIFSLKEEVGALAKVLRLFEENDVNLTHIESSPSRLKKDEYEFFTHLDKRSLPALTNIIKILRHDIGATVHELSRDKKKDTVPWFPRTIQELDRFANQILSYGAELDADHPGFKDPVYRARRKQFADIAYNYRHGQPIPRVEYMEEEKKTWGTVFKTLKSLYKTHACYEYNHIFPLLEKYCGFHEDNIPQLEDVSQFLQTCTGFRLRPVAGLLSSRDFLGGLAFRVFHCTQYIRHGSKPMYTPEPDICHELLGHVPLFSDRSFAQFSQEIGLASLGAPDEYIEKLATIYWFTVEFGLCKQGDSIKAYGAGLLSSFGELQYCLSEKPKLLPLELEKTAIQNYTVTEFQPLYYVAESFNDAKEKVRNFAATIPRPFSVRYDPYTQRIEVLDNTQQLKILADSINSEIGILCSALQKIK
Experimental: HTS for ligand-induced PAH stabilization was performed by monitoring the thermal denaturation of recombinant pure PAH protein in the presence of the extrinsic fluorescent probe 8-anilino 1-naphtalene sulfonic acid (ANS; Aldrich). HTS experiments were performed in a FluoDia T70 High Temperature Fluorescence Microplate Reader (Photon Technology International). Protein-ligand solutions (200 uL) were dispensed into 96-well microplates (ThermoFast®96 Skirted from Abgene) and overlayed with mineral oil. Protein solutions contained 0.1 mg/ml PAH (2 μM in PAH subunit) in 20 mM Hepes 200 mM NaCl pH 7.0 and 100 μM ANS. Ligands were added in DMSO, at 100 μM and 2.5% final concentration, respectively. Control experiments in the absence of DMSO and/or ligands were routinely performed in each microplate. Ligands (from MayBridge HitFinder™ Collection Database) were manually added to the microplates containing the protein solutions and incubated at 25° C. for 30 min before loading them onto the microplate reader. Thermal denaturation was monitored by following the increase in ANS fluorescence intensity due to protein unfolding λexc=395 and λern=500 nm; filters (Matulis D, et. Al., Biochemistry 2005, 44(13):5258-66). Fluorescence was registered in the 25-75° C. range, at a 1° C./min scan rate and allowing the system to equilibrate at each temperature for 1 min before fluorescence acquisition The experiments were real-time monitored using the software provided by the manufacturer. After smoothing and normalization of the experimental data, ligand induced stabilization was screened by estimation of the T0.5 as midpoint temperature of the transition defined as the temperature where half of the unfolded fluorescence signal (fu) is experimentally observed, using a home-built software written in C++ and the following expression (equation 1): […]
Additional thermal denaturation experiments were performed on a Cary Eclipse fluorescence spectrophotometer equipped with a temperature controlled Peltier multicell holder (Varian). Samples containing PAH (2 μM subunit) in 20 mM NaHepes, 200 mM NaCl, pH 7.0, 100 μM ANS, 2.5% DMSO and 0-100 μM ligands were incubated at room temperature for 30 min to allow equilibration prior to measurements. Thermal denaturation was monitored by following changes in ANS fluorescence emission (excitation at 395 and emission at 500 nm; slits 10 nm) at a 1 K/min in a 20-80° C. range. Each run contained 4 different samples, including a control in the absence of ligand. Data analysis was performed by fitting of the experimental fluorescence to equation 1.
Similar ligand-induced stabilization experiments were performed using i) a double truncated form of PAH equivalent to the catalytic domain (PAH103-428) lacking both the regulatory N-terminal domain and the tetramerization motif and existing as a functional dimmer and ii) the R68S-PAH mutant, associated to mild PKU and one of the few PKU mutants that display enough stability to be purified as a stable tetramer.

[1] = Solubility in dosing stocks and final solutions; format: physicochemical; details: 50 mg/ml in 100% DMSO stock and 5 mg/ml in 10% DMSO and 10% glucose
Experimental: Solutions of Compounds 11 and Compound 13 were prepared at concentrations of 5 mg/ml (14 mM) in 10% DMSO and 10% glucose. For that, stocks of 50 mg/ml (140 mM) of each compound in 100% DMSO were diluted 1:10 with a 10% glucose solution. Both the stocks and the final solutions of Compounds 11 and 13 are in fact suspensions since the compound is not soluble al these conditions.

wt-PAH = target: T2, wt-PAH (Homo sapiens, UniProt P00439); assay: Quenching of PAH Trp-emission fluorescence; format: binding; details: apparent affinity, data not shown; read-out: ligand concentration inducing a 50% decrease in Trp-fluorescence
T2 construct: made in house; host or cells: E. coli
T2 sequence (P00439 1-452): T1 sequence (P00439 1-452 R68S) with S68R
Experimental: As expected, the stabilizing effect was concentration dependent for all four of them, being significant at 25 μM for compounds 11 and 13 (FIG. 2). […] The apparent affinities of wt-PAH for these four ligands were further studied by monitoring quenching effects of these ligands on PAH Trp-emission fluorescence (not shown). Ligands 11 and 13 induced significant fluorescence quenching, inducing a 50% decrease in Trp-fluorescence at ˜30 and ˜3 μM for ligands 11 and 13, respectively.

Structure (SMILES)	ΔT0.5 PAHR68S (R68S-PAH)	T0.5 PAHR68S (R68S-PAH)	stabilization of R68S-PAH (R68S-PAH)	solubility [1]	EC50 (wt-PAH)
Cc1onc(-c2ccccc2)c1-c1n[nH]c(N)c1C#N [Compound 5, 5-amino-3-(5-methyl-3-phenyl-4-isoxazolyl)-1H-pyrazole-4-carbonitrile]	1.1 °C	50.0 ± 1.4 °C	–	–	–
Cn1cnc([N+](=O)[O-])c1N1CCN(C(c2ccccc2)c2ccccc2)CC1 [Compound 6, 1-benzhydryl-4-(1-methyl-4-nitro-1H-imidazol-5-yl)piperazine]	3.2 °C	52.1 ± 1.6 °C	significantly stabilized	–	–
Nc1c(-c2ccc3ccccc3n2)c2ccc([N+](=O)[O-])cc2c(=O)n1Cc1ccccc1 [Compound 11, 3-amino-2-benzyl-7-nitro-4-(2-quinolyl)-1,2-dihydroisoquinolin-1-one]	8.2 °C	57.1 ± 0.3 °C	significantly stabilized	not soluble	~30 µM
Cc1ccnc(-n2c(=S)[nH]c3sc(C)c(C)c3c2=O)c1 [Compound 13, 5,6-dimethyl-3-(4-methyl-2-pyridinyl)-2-thioxo-2,3 dihydrothieno[2,3-d]pyrimidin-4(1H)-one]	1.6 °C	50.5 ± 0.5 °C	only a slight stabilized	not soluble	~3 µM
